Measured values published in ChEMBL document CHEMBL4613212, “Insights of synthetic analogues of anti-leprosy agents” (Bioorg Med Chem, 2019).
Values after ≈ are worked out from the molar mass of the structure shown.

Assays:
Mycobacterium leprae [1] = experiment: Antimicrobial activity against Mycobacterium leprae assessed as microbial growth at 1.5 ug/ml in presence of 0.1 ug/ml rifampin measured at 4 weeks (reference value: 147 +/- 19.1%); format: functional
Mycobacterium leprae [2] = experiment: Antimicrobial activity against Mycobacterium leprae assessed as microbial growth at 1.5 ug/ml in presence of 0.025 ug/ml KRM-1648 measured at 4 weeks (reference value: 147 +/- 19.1%); format: functional
Mycobacterium leprae [3] = experiment: Antimicrobial activity against Mycobacterium leprae assessed as fractional inhibitory concentration index at 1.5 ug/ml in presence of 0.2 ug/ml rifampin measured at 4 weeks; format: functional
[4] = tested on: Mycolicibacterium smegmatis; experiment: Antimicrobial activity against Mycobacterium smegmatis incubated for 24 hrs by broth microdilution assay; format: functional
Mycobacterium leprae [5] = experiment: Antimicrobial activity against Mycobacterium leprae assessed as fractional inhibitory concentration index at 1.5 ug/ml in presence of 0.025 ug/ml KRM-1648 measured at 4 weeks; format: functional
Mycolicibacterium aurum = experiment: Antimicrobial activity against Mycobacterium aurum incubated for 24 hrs by broth microdilution assay; format: functional
Mycolicibacterium vaccae = experiment: Antimicrobial activity against Mycobacterium vaccae incubated for 24 hrs by broth microdilution assay; format: functional
Mycobacterium leprae [6] = experiment: Antimicrobial activity against Mycobacterium leprae assessed as microbial growth at 1.5 ug/ml in presence of 0.05 ug/ml rifabutin measured at 4 weeks (reference value: 147 +/- 19.1%); format: functional
Mycobacterium leprae [7] = experiment: Antimicrobial activity against Mycobacterium leprae assessed as microbial growth at 1.5 ug/ml in presence of 0.0125 ug/ml KRM-1648 measured at 4 weeks (reference value: 147 +/- 19.1%); format: functional
[8] = tested on: Mycolicibacterium fortuitum; experiment: Antimicrobial activity against Mycobacterium fortuitum incubated for 24 hrs by broth microdilution assay; format: functional
Mycobacterium leprae [9] = experiment: Antimicrobial activity against Mycobacterium leprae assessed as fractional inhibitory concentration index at 1.5 ug/ml in presence of 0.1 ug/ml rifabutin measured at 4 weeks; format: functional
Mycobacterium leprae [10] = experiment: Antimicrobial activity against Mycobacterium leprae assessed as microbial growth at 1.5 ug/ml in presence of 0.1 ug/ml rifabutin measured at 4 weeks (reference value: 147 +/- 19.1%); format: functional
Mycobacterium leprae [11] = experiment: Antimicrobial activity against Mycobacterium leprae assessed as microbial growth at 1.5 ug/ml in presence of 0.2 ug/ml rifampin measured at 4 weeks (reference value: 147 +/- 19.1%); format: functional
Mycobacterium leprae [12] = experiment: Anti-leprotic activity against Mycobacterium leprae infected in BALB/c weanling mouse assessed as bacteria killing at 150 mg/kg, ip administrated cotreated with 0.0001% dietary dapsone for 60 days and measured after 1 year by Spearman-Karber technique analysis relative to control; format: functional
Mycobacterium leprae [13] = experiment: Anti-leprotic activity against Mycobacterium leprae infected in BALB/c weanling mouse assessed as bacteria killing at 150 mg/kg, ip administrated for 60 days and measured after 1 year by most probable number technique analysis relative to control; format: functional
Mycobacterium leprae [14] = experiment: Anti-leprotic activity against Mycobacterium leprae infected in BALB/c weanling mouse assessed as bacteria killing at 150 mg/kg, ip administrated for 60 days and measured after 1 year by Spearman-Karber technique analysis relative to control; format: functional
Mycobacterium leprae [15] = experiment: Anti-leprotic activity against Mycobacterium leprae infected in BALB/c weanling mouse assessed as bacteria killing at 150 mg/kg, ip administrated cotreated with 0.0001% dietary dapsone for 60 days and measured after 1 year by most probable number technique analysis relative to control; format: functional
[16] = tested on: Mycobacterium tuberculosis; experiment: Antimycobacterial activity against Mycobacterium tuberculosis H37Rv by BACTEC radiometric growth assay; format: functional
Mycobacterium leprae [17] = experiment: Anti-leprotic activity against Mycobacterium leprae infected in BALB/c mouse assessed as time delay in bacterial multiplication in footpad at 0.003 g/100g of diet administered via feed starting 60 or 75 day post infection up to 90 days by Shepard's kinetic method; format: functional
[18] = tested on: Mycolicibacterium smegmatis; experiment: Antimycobacterial activity against DDS resistant Mycobacterium smegmatis ATCC 607 […]; format: functional
[19] = tested on: Mycolicibacterium smegmatis; experiment: Antimycobacterial activity against DDS sensitive Mycobacterium smegmatis ATCC 607 […]; format: functional
[20] = tested on: Mycobacterium tuberculosis; experiment: Antitubercular activity against Mycobacterium tuberculosis H37Rv ATCC 27294 assessed as inhibition of [3H]-thymidine incorporation relative to control; format: functional
[21] = tested on: Mycobacterium tuberculosis; experiment: Antitubercular activity against Mycobacterium tuberculosis H37Rv ATCC 27294 infected in bone marrow macrophages assessed as reduction in growth after 7 days; format: functional; conditions: H37Rv ATCC 27294, 168 h
[22] = tested on: Mycobacterium tuberculosis; experiment: Antitubercular activity against Mycobacterium tuberculosis H37Rv ATCC 27294 assessed as growth inhibition at 6.25 ug/ml by microplate alamar blue assay relative to control; format: functional
[23] = Selectivity index, ratio of IC50 for African green monkey Vero cells to MIC for antitubercular activity against Mycobacterium tuberculosis H37Rv; format: toxicity; conditions: Vero cells, read-out: Selectivity Index

## O=C(O)c1cn(C2CC2)c2cc(N3CCNCC3)c(F)cc2c1=O [CIPROFLOXACIN]
Mycobacterium leprae [1]
  Activity: 28%
Mycobacterium leprae [2]
  Activity: 0%
Mycobacterium leprae [3]
  fractional inhibitory concentration index (FICI): 1
[4]
  MIC: 0.8 µg/mL (≈ 2.41 µM)
Mycobacterium leprae [5]
  fractional inhibitory concentration index (FICI): 1
Mycolicibacterium aurum
  MIC: < 0.05 µg/mL
Mycolicibacterium vaccae
  MIC: 0.4 µg/mL (≈ 1.21 µM)
Mycobacterium leprae [6]
  Activity: 21%
Mycobacterium leprae [7]
  Activity: 19%
[8]
  MIC: 0.05 µg/mL (≈ 0.151 µM)
Mycobacterium leprae [9]
  fractional inhibitory concentration index (FICI): 1
Mycobacterium leprae [10]
  Activity: 0%
Mycobacterium leprae [11]
  Activity: 0%

## CN[C@@H]1[C@H](O[C@H]2[C@H](O[C@H]3[C@H](O)[C@@H](O)[C@H](N=C(N)N)[C@@H](O)[C@@H]3N=C(N)N)O[C@@H](C)[C@]2(O)C=O)O[C@@H](CO)[C@H](O)[C@H]1O [STREPTOMYCIN]
Mycobacterium leprae [12]
  Activity: 95%
Mycobacterium leprae [13]
  Activity: 97.2%
Mycobacterium leprae [14]
  Activity: 97%
Mycobacterium leprae [15]
  Activity: 95.7%
[16]
  MIC: 2 µg/mL (≈ 3.44 µM)

## Nc1ccc(S(=O)(=O)c2cccc(N)c2)cc1
Mycobacterium leprae [17]
  Time: 133 days
[18]
  MIC: 1300 µg/mL (≈ 5240 µM)
[19]
  MIC: 24.2 µg/mL (≈ 97.5 µM)

## Clc1nc(-c2ccco2)c2ncn(Cc3ccccc3)c2n1
[20]
  inhibition (INH): 27%
[21]
  EC99: 8 µg/mL
[22]
  inhibition at 6.25 µg/mL: > 90%
[23]
  selectivity ratio: 10.6
